In patent US20210008047A1, “TARGETING MINIMAL RESIDUAL DISEASE IN CANCER WITH RXR ANTAGONISTS” (VIB VZW, priority 2018, published 2021):

What was measured:
[1] = test system: MM052 cells; assay: Colony assay and Cell Titer Glo assay in short-term melanoma culture MM052; assay type: cell-based, human
Procedure: E) and Cell Titer Glo assay performed after 6 days after incubation of the short culture melanoma line MM052 with MEK inhibitor trametinib (TRA; 2 nM), RXRG agonist bexarotene (BEX; 1 uM), FAK inhibitor PF-562271 (1 uM) and RXRG antagonist HX531 (2 uM).
Cells were grown to near confluency on 12well plates and treated with the indicated drug combinations for the indicated time period. Cells were washed once with PBS, stained with crystal violet (1% crystal violet w/v, 35% methanol v/v) for 15 min, washed with PBS and destained in tap water.
2500 cells were plated onto a 96well plate and treated with the indicated drug combinations for the indicated time period. Cell Titer Glo assay was performed according to the manufacturer's instruction (Promega) and luminescence was measured on a VictorX3 (Perkin Elmer).

[2] = test system: MEL006 cells; assay: FACS of GFRA2-positive (NDTC) cells in drug-exposed MEL006 cultures
Procedure: Cells from dissociated MEL006 tumors were grown in 5% CO2 at 37° C. in F10 (Gibco, Life Technologies) supplemented with 10% FBS (Gibco, Life Technologies) and 0.25% Glutamax (Gibco, Life Technologies).
Cells were incubated with GFRA2 antibody (AF429 R&D 3 μg/mL) for 45 minutes at room temperature, followed by anti-goat secondary antibody conjugated with Alexa Fluor® 594 (ThermoFisherScientific) for 30 min at room temperature. Cells were resuspended in FACS sorting buffer (culture medium supplied with 1% EDTA 100 mM).
To assess whether emergence of NDTCs upon MAPK inhibition is cancer cell intrinsic or depends on micro-environmental cues, we exposed 2D cultures of Me1006 to near IC25 concentrations of dabrafenib and trametinib for 10 days.

## CN1c2ccc([N+](=O)[O-])cc2N=C(c2ccc(C(=O)O)cc2)c2cc3c(cc21)C(C)(C)CCC3(C)C [HX531]
[1]; MM52, HX531 2 uM, trametinib 2 nM per FIG. 7 legend
  Sensitization of cells to trametinib: sensitized
[2]; in the presence of IC50 concentrations of the BRAF and MEK-inhibitors
  Drug-dependent induction of GFRA2-positive cells: completely inhibited

## CN(c1ncccc1CNc1nc(Nc2ccc3c(c2)CC(=O)N3)ncc1C(F)(F)F)S(C)(=O)=O [PF-562271]
[2]; FAK inhibitor together with DT, dose-dependent
  Drug-dependent emergence of the GFRA2-high cell population: diminished
[2]; MEL006 cells treated with DT and or FAK inhibitors, then FACS sorted for GFRA2
  Sensitivity of GFRA2high cells to FAK inhibitors: sensitive

## C=C(c1ccc(C(=O)O)cc1)c1cc2c(cc1C)C(C)(C)CCC2(C)C [bexarotene]
[1]; MM52
  Sensitivity of cells to a combination of trametinib/FAK-inhibitors: increased
[1]; MM52, bexarotene alone
  Long-term growth inhibition: did not induce measurable long-term growth inhibition
[1]; MM52, bexarotene at concentrations as low as 10 nM
  Sensitivity of cells to trametinib: significantly decreased
[1]; bexarotene with trametinib/FAK-inhibitors, after 3 days of treatment (data not shown)
  Cells in which cell death occurred: ~100%
